The structures appear in SMILES notation. Counter-ions that a name gives are not always drawn. Where only a bound is given, the exact number is not on record here.

This experiment deals with A549 NSCLC cells. Kind of experiment: Cellular cytotoxicity assay (Alamar Blue), A549. In kind it is cell-based. As to conditions: Homo sapiens, 72 h, upper end given as ≧100, read-out: IC50 (μM), cytotoxicity towards A549 NSCLC cells. The gist of the method:
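Cells were dosed 24 h after seeding with semi-log compound dilutions in quadruplicate, then incubated 72 h at 37 °C, 5% CO2. Viability read by Resazurin reduction (4 h, fluorescence 544/590 nm) relative to untreated 0.5% DMSO controls; IC50 by non-linear regression.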
A general note: Alamar Blue is a resazurin reagent that responds to reducing activity.

For the compound `CN=C(Nc1ccccc1)N1CCc2nc(C(=O)Nc3ccccc3N)sc2C1` [Example 114, N-(2-aminophenyl)-5-[anilino(methylimino)methyl]-4,5,6,7-tetrahydro[1,3]thiazolo[5,4-c]pyridine-2-carboxamide. (Dihydrochloride)], the IC50 is no less than 0.2 µM.

As for `CN=C(Nc1ccc(OC)cc1)N1CCc2nc(C(=O)Nc3cc(OC)ccc3N)sc2C1` [Example 115, N-(2-amino-5-methoxyphenyl)-5-[[(4-methoxyphenyl)amino](methylimino)methyl]-4,5,6,7-tetrahydro[1,3]thiazolo[5,4-c]pyridine-2-carboxamide], the IC50 is no less than 0.2 µM. Take `Cc1ccccc1NC(=NC#N)N1CCc2nc(C(=O)Nc3ccccc3N)sc2C1` [Example 119, N-(2-aminophenyl)-5-{(cyanoimino)[(2-methylphenyl)amino]methyl}-4,5,6,7-tetrahydro[1,3]thiazolo[5,4-c]pyridine-2-carboxamide]: the IC50 is no less than 0.2 µM. With `CN(C)c1ccc(NC(=NC#N)N2CCc3nc(C(=O)Nc4ccccc4N)sc3C2)cc1` [Example 120, N-(2-aminophenyl)-5-[(cyanoimino){[4-(dimethylamino)phenyl]amino}methyl]-4,5,6,7-tetrahydro[1,3]thiazolo[5,4-c]pyridine-2-carboxamide] the figure was no less than 0.2 µM; with `CCCCCNC(=NC#N)N1CCc2nc(C(=O)Nc3ccccc3N)sc2C1` [Example 121, N-(2-aminophenyl)-5-[(cyanoimino)(pentylamino)methyl]-4,5,6,7-tetrahydro[1,3]thiazolo[5,4-c]pyridine-2-carboxamide], no less than 0.2 µM.

Consider `COc1ccc(N)c(NC(=O)c2nc3c(s2)CN(C(=Nc2ccccc2)NC#N)CC3)c1` [Example 123, N-(2-amino-5-methoxyphenyl)-5-[(cyanoamino)(phenylimino)methyl]-4,5,6,7-tetrahydro[1,3]thiazolo[5,4-c]pyridine-2-carboxamide], for which the half-maximal inhibitory concentration (IC50) was no less than 0.2 µM. On to `COc1ccc(N=C(NC#N)N2CCc3nc(C(=O)Nc4cc(OC)ccc4N)sc3C2)cc1` [Example 124, N-(2-amino-5-methoxyphenyl)-5-{(cyanoamino)[(4-methoxyphenyl)imino]-methyl}-4,5,6,7-tetrahydro[1,3]thiazolo[5,4-c]pyridine-2-carboxamide], for which the IC50 is no less than 0.2 µM. With `COc1ccc(N=C(NC#N)N2CCc3nc(C(=O)Nc4cc(C(C)C)ccc4N)sc3C2)cc1` [Example 125, N-(2-amino-5-isopropylphenyl)-5-{(cyanoamino)[(4-methoxyphenyl)-imino]methyl}-4,5,6,7-tetrahydro[1,3]thiazolo[5,4-c]pyridine-2-carboxamide] the figure was no less than 0.2 µM; with `CC(=Nc1ccccc1)N1CCc2nc(C(=O)Nc3ccccc3N)sc2C1` [Example 126, N-(2-aminophenyl)-5-[N-phenylethanimidoyl]-4,5,6,7-tetrahydro[1,3]thiazolo[5,4-c]pyridine-2-carboxamide], no less than 0.2 µM; with `COc1ccc(N=C(C)N2CCc3nc(C(=O)Nc4ccccc4N)sc3C2)cc1OC` [Example 127, N-(2-aminophenyl)-5-[N-(3,4-dimethoxyphenyl)ethanimidoyl]-4,5,6,7 tetrahydro[1,3]thiazolo[5,4-c]pyridine-2-carboxamide], no less than 0.2 µM. For `COc1ccc(N=C(C)N2CCc3nc(C(=O)Nc4ccccc4N)sc3C2)cc1` [Example 128, N-(2-aminophenyl)-5-[N-(4-methoxyphenyl)ethanimidoyl]-4,5,6,7-tetrahydro[1,3]thiazolo[5,4-c]pyridine-2-carboxamide], the IC50 was no less than 0.2 µM.

With `COc1ccc(N)c(NC(=O)c2nc3c(s2)CN(C(C)=Nc2ccccc2)CC3)c1` [Example 129, N-(2-amino-5-methoxyphenyl)-5-[N-phenylethanimidoyl]-4,5,6,7-tetrahydro[1,3]thiazolo[5,4-c]pyridine-2-carboxamide], the IC50 was no less than 0.2 µM.

Broadly, the IC50 is the concentration at which inhibition is half-maximal.
